Results on four molecules are retold here after PMC4929710, “Specificity and mechanism of action of alpha-helical membrane-active peptides interacting with model and biological membranes by single-molecule force spectroscopy” (Scientific Reports, 2016).

Data set [1] relates to human red blood cells (hRBCs). As to the kind of experiment: Hemolytic activity assay (MHC). Type of data set: cell-based. The settings on record: 1% final hRBCs in PBS (70 μL of 2% + 70 μL peptide), 37 °C, 2 h, absorbance 578 nm. The protocol: Peptide samples were serially diluted with phosphate-buffered saline (PBS) and added to 96-well plates (round bottom) with 70 μL per well. Healthy human red blood cells (hRBCs) were collected using an anticoagulation tube with EDTAK2 and centrifuged at 1,000 rpm for 5 min. The erythrocytes were washed three times, resuspended in PBS, and then diluted to a concentration of 2% in PBS. A total of 70 μL of 2% erythrocytes was added to each well and incubated at 37 °C for 2 h. The plates were centrifuged for 10 min at 3,000 rpm and the supernatant was transferred to a 96-well plate (flat bottom). The release of hemoglobin was determined by measuring the absorbance of the supernatant at 578 nm. The hemolytic activity was determined as the minimal peptide concentration that caused hemolysis [minimal hemolytic concentration (MHC)]. Erythrocytes in PBS and distilled water were used as the control of 0% and 100% hemolysis, respectively.

Another data set relates to 3T3-L1 cells. Type of data set: cell-based, mouse. The settings on record: 24 h. As for the experimental part: The MTT cell proliferation assay was used to investigate the anticancer activity and cytotoxicity of MAPs against cancer cell lines (HeLa, A549, SGC-7901, and B16) and normal cells (3T3-L1), respectively. Cells (5 × 10^3) were seeded in 96-well plates and incubated overnight. The peptide samples were then added to cells with final concentrations ranging from 1 μM to 125 μM. After 24 h, 20 μL of 5 mg/mL MTT solution in PBS was added to the cells and treated for 4 h at 37 °C. The formazan crystals were dissolved by 150 μL of dimethyl sulfoxide (DMSO). Finally, the absorbance was determined at 492 nm. The results were expressed as IC50, representing the concentration at which cell viability was reduced by 50%. All assays were repeated in triplicate.

The subject of a further data set is PC/PG (7:3 w/w) LUVs. As to the kind of experiment: Tryptophan fluorescence with LUVs. Type of data set: binding. Particulars: PC/PG (7:3 w/w) LUVs versus HEPES buffer, 25 °C. An excerpt: In order to investigate the interaction between peptides and difference types of cell membranes, three different LUVs were used to mimic a prokaryotic cell membrane (PC/PG), a normal eukaryotic cell membrane (PC/Chol), and a cancer cell membrane (PC/SM/PE/PS/Chol). Tryptophan residue in the peptide sequence was used as a fluorescent probe to examine the interaction of peptides with model membranes. […] For example, in the PC/PG (7:3 w/w) anionic prokaryotic mimicking model membrane, peptides V13L and A12L/A20L had the strongest hydrophobicity with blue shift values of approximately 37 nm and 38 nm, respectively. Conversely, peptide V13E with a negative charge of glutamic acid residue, and peptide L6A/L17A with the lowest hydrophobicity had blue shift values of approximately 18 nm and 17 nm, respectively. […] In addition, within PC/SM/PE/PS/Chol (4.35:4.35:1:0.3:1 w/w) as a cancer-mimicking model membrane, the same results could be obtained in that peptide hydrophobicity correlates with anticancer activity and the blue shift values of peptides.
In accordance with previously described methods, LUVs were prepared with PC/PG (7:3 w/w), PC/Chol (8:1 w/w), and PC/SM/PE/PS/Chol (4.35:4.35:1:0.3:1 w/w) to mimic prokaryotic cell, […], membranes, respectively. Lipids using the freeze-thaw method as described previously, followed by extrusion through […] double-stacked nuclepore filters using an Mini-Extruder (Avanti Polar Lipids, Inc.)[11][27].
Three kinds of LUVs were prepared and cultured in HEPES buffer (pH 7.4, 10 mM HEPES, 150 mM NaCl) and the molar concentration was adjusted to 100 μM. A total of 14 μL of 100 μM MAPs was mixed with 686 μL of 100 μM liposomes at 25 °C for 10 min. A Shimadzu RF-5301PC, (excitation wavelength of […], emission wavelength of 300–450 nm) was used to measure the tryptophan fluorescence. Potassium iodide (KI) as a quencher was added to the previous reaction system for a final concentration of 0.02–0.08 M, respectively. The experimental data were plotted according to the Stern–Volmer equation F0/F = 1 + Ksv[Q], where F0 and F are the fluorescence intensity in the absence or presence of a quencher at concentration [Q], respectively, and Ksv is the Stern–Volmer quenching constant.

The test system of a further data set is bacteria. The settings on record: text summary of Table 1, strain not specified. As for the experimental part:
Minimal inhibitory concentrations (MICs) were used to represent the antimicrobial activity of MAPs and were determined by the standard microtiter dilution method. Four bacterial strains including two gram-negative bacterial strains of E. coli and P. aeruginosa, and two gram-positive bacterial strains of S. aureus and S. epidermidis were selected as representative prokaryotes. A single bacterial colony was picked and cultured in Mueller–Hinton (MH) medium for 18–20 h. The bacterial solution was diluted in the same medium for a final inoculum of 5 × 10^5 colony-forming units (CFU)/mL and placed in 96-well plates with 90 μL per well. Then, 10 μL of peptides was added. MICs were determined as the lowest peptide concentration that inhibited bacterial growth after incubation for 24 h at 37 °C. All assays were repeated in triplicate. GM is the geometric mean of MIC values from two gram-positive bacteria strains or two gram-negative bacteria strains in this table.

Setting [2] is: normal cells, MTT, 1-125 μM, triplicate, read-out: IC50 3T3-L1.

The term IC50 denotes the concentration at which inhibition is half-maximal.

Read-outs that look alike come from different tables or passages of the source.

On to `CC[C@H](C)[C@H](NC(=O)[C@H](C)NC(=O)[C@H](CCCCN)NC(=O)[C@H](CC(C)C)NC(=O)[C@H](C)NC(=O)[C@@H](NC(=O)[C@H](Cc1cnc[nH]1)NC(=O)[C@H](CC(C)C)NC(=O)[C@@H](NC(=O)[C@@H](NC(=O)[C@H](CCCCN)NC(=O)[C@H](CCCCN)NC(=O)[C@H](C)NC(=O)[C@H](CO)NC(=O)[C@H](CCCCN)NC(=O)[C@H](Cc1ccccc1)NC(=O)[C@@H](NC(=O)[C@H](CCCCN)NC(=O)[C@H](CC(C)C)NC(=O)[C@H](Cc1ccccc1)NC(=O)[C@H](CO)NC(=O)[C@H](CCCCN)NC(=O)[C@H](Cc1c[nH]c2ccccc12)NC(=O)[C@H](CCCCN)NC(C)=O)[C@@H](C)O)[C@@H](C)O)C(C)C)[C@@H](C)O)C(=O)N[C@@H](CO)C(=O)N[C@@H](CO)C(N)=O` [Peptide V13K], for which, in data set [1], the “MHC (minimal hemolytic concentration)” value was 250 µM. For the same molecule, the concentration for half-maximal inhibition (IC50) in the data set on 3T3-L1 cells (setting [2]) came out at 26.2 µM. Moreover, the “PC/PG Blue shift” value in the data set with PC/PG (7:3 w/w) LUVs is 28 nm.
Take “Ac-KWKSFAKTFKSAKKTVAHTALKAISS-NH2 [L6A/L17A]”: the concentration for half-maximal inhibition (IC50) in the data set on 3T3-L1 cells (setting [2]) is over 125 µM. The “PC/PG Blue shift” value in the data set with PC/PG (7:3 w/w) LUVs is given as about 17 nm. In addition, the MIC value result against bacteria was “approximately 125 μM”.
As for “Ac-KWKSFLKTFKSAEKTVLHTALKAISS-NH2 [Peptide V13E]”, the IC50 with 3T3-L1 cells was over 125 µM.
Molecule “Ac-KWKSFLKTFKSALKTVLHTALKAISS-NH2 [Peptide V13L]” had a half-inhibitory concentration (IC50) with 3T3-L1 cells of 6.55 µM.
